Experimental data reported in PubChem BioAssay (NCI).
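Cultured in 96-well plates, cells were exposed to test compound for 48 hours across five concentrations. The concentration for 50% growth inhibition is given as GI50. TGI: concentration producing complete growth inhibition.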

Experiments:
Experiment in all cases: DTP human tumour cell line panel, 48 h
[1] = system: SK-OV-3 ovarian
[2] = system: UO-31 renal
[3] = system: SNB-75 CNS
[4] = system: RPMI-8226 leukemia
[5] = system: SF-539 CNS
[6] = system: RXF 393 renal
[7] = system: A498 renal
[8] = system: HCT-116 colon
[9] = system: KM12 colon
[10] = system: NCI-H460 lung
[11] = system: MDA-MB-435
[12] = system: CCRF-CEM leukemia
[13] = system: NCI-H226 lung
[14] = system: HOP-62 NSCLC
[15] = system: DU-145 prostate
[16] = system: HOP-92 NSCLC
[17] = system: SK-MEL-5 melanoma
[18] = system: M14 melanoma
[19] = system: SK-MEL-28 melanoma
[20] = system: NCI-H522 lung
[21] = system: BT-549 breast
[22] = system: K-562 leukemia
[23] = system: OVCAR-5 ovarian
[24] = system: T-47D breast
[25] = system: UACC-62 melanoma
[26] = system: CAKI-1 renal
[27] = system: OVCAR-3 ovarian
[28] = system: OVCAR-4 ovarian
[29] = system: UACC-257 melanoma
[30] = system: NCI/ADR-RES ovarian
[31] = system: SNB-19 CNS
[32] = system: MOLT-4 leukemia
[33] = system: COLO 205 colon
[34] = system: HCT-15 colon
[35] = system: SF-268 CNS
[36] = system: SN12C renal
[37] = system: IGROV1 ovarian
[38] = system: A549 NSCLC
[39] = system: MDA-MB-468 breast
[40] = system: SK-MEL-2 melanoma
[41] = system: PC-3 prostate
[42] = system: OVCAR-8 ovarian
[43] = system: 786-0 renal
[44] = system: MDA-MB-231 breast
[45] = system: MALME-3M melanoma
[46] = system: HCC-2998 colon
[47] = system: LOX IMVI melanoma
[48] = system: SW-620 colon
[49] = system: SR leukemia
[50] = system: HS 578T breast
[51] = system: U251 CNS
[52] = system: HT29 colon
[53] = system: MCF7 breast
[54] = system: ACHN renal
[55] = system: NCI-H23 lung
[56] = system: SF-295 CNS
[57] = system: HL-60(TB) leukemia
[58] = system: TK-10 renal
[59] = system: EKVX NSCLC

CCc1ccc(SC2c3cc(OC)ccc3Oc3nc(N)c(C#N)c(N)c32)cc1 (stereo unspecified)
GI50 [1]: 6.62 µM | TGI [1]: 82.4 µM | GI50 [2]: 0.575 µM | TGI [2]: 4.17 µM | GI50 [3]: 0.566 µM | TGI [3]: 4.02 µM | GI50 [4]: 3.02 µM | TGI [4]: 14.6 µM | GI50 [5]: 1.59 µM | TGI [5]: 3.27 µM | GI50 [6]: 1.76 µM | TGI [6]: 5.09 µM | GI50 [7]: 3.32 µM | TGI [7]: 10.8 µM | GI50 [8]: 3.05 µM | TGI [8]: 13.9 µM | GI50 [9]: 3.43 µM | TGI [9]: 16.1 µM | GI50 [10]: 2.84 µM | TGI [10]: 15.3 µM | GI50 [11]: 2.05 µM | TGI [11]: 11.6 µM | GI50 [12]: 0.225 µM | TGI [12]: 4.34 µM | GI50 [13]: 2.26 µM | TGI [13]: 23.3 µM | GI50 [14]: 3.77 µM | TGI [14]: > 100 µM | GI50 [15]: 11.7 µM | TGI [15]: 24.6 µM | GI50 [16]: 3.66 µM | TGI [16]: 35.4 µM | GI50 [17]: 3.23 µM | TGI [17]: 13.7 µM | GI50 [18]: 2.67 µM | TGI [18]: 12.4 µM | GI50 [19]: 2.99 µM | TGI [19]: 12.5 µM | GI50 [20]: 1.69 µM | TGI [20]: 3.49 µM | GI50 [21]: 0.742 µM | TGI [21]: 3.25 µM | GI50 [22]: 3.51 µM | TGI [22]: 24.4 µM | GI50 [23]: 3.41 µM | TGI [23]: 14.4 µM | GI50 [24]: 3.36 µM | TGI [24]: 32.9 µM | GI50 [25]: 2.73 µM | TGI [25]: 11.5 µM | GI50 [26]: 1.89 µM | TGI [26]: 15 µM | GI50 [27]: 2.9 µM | TGI [27]: 12.6 µM | GI50 [28]: 4.23 µM | TGI [28]: 41.6 µM | GI50 [29]: 9.06 µM | TGI [29]: 29.6 µM | GI50 [30]: 3.24 µM | TGI [30]: 26.4 µM | GI50 [31]: 3.17 µM | TGI [31]: 16.6 µM | GI50 [32]: 1.28 µM | TGI [32]: 9.69 µM | GI50 [33]: 2.35 µM | TGI [33]: 6.19 µM | GI50 [34]: 2.96 µM | TGI [34]: 19.3 µM | GI50 [35]: 1.99 µM | TGI [35]: 20.5 µM | GI50 [36]: 1.76 µM | TGI [36]: 15.8 µM | GI50 [37]: 0.349 µM | TGI [37]: 1.51 µM | GI50 [38]: 3.99 µM | TGI [38]: 49.4 µM | GI50 [39]: 2.1 µM | TGI [39]: 6.56 µM | GI50 [40]: 3.42 µM | TGI [40]: 13 µM | GI50 [41]: 1.52 µM | TGI [41]: 18.6 µM | GI50 [42]: 5.85 µM | TGI [42]: 37.4 µM | GI50 [43]: 3.11 µM | TGI [43]: 24.9 µM | GI50 [44]: 3.34 µM | TGI [44]: 17 µM | GI50 [45]: 10.6 µM | TGI [45]: 22.7 µM | GI50 [46]: 4.9 µM | TGI [46]: 17.1 µM | GI50 [47]: 0.23 µM | TGI [47]: 0.658 µM | GI50 [48]: 3.15 µM | TGI [48]: 13.1 µM | GI50 [49]: 2.61 µM | TGI [49]: 22.8 µM | GI50 [50]: 2.35 µM | TGI [50]: 9.18 µM | GI50 [51]: 1.82 µM | TGI [51]: 15.3 µM | GI50 [52]: 6.15 µM | TGI [52]: > 100 µM | GI50 [53]: 3.04 µM | TGI [53]: 13.6 µM | GI50 [54]: 5.6 µM | TGI [54]: 25.3 µM | GI50 [55]: 2.9 µM | TGI [55]: 14 µM | GI50 [56]: 3.28 µM | TGI [56]: 15.7 µM | GI50 [57]: 2.09 µM | TGI [57]: 6.11 µM | GI50 [58]: 9.67 µM | TGI [58]: 32.2 µM | GI50 [59]: 3.74 µM | TGI [59]: 17.3 µM

COc1cnc2c(c1)C(=O)c1c-2n(CCCNCCO)c(=O)c2cc(OC)c(OC)cc12
GI50 [1]: 1.62 µM | TGI [1]: 5.98 µM | GI50 [2]: 5.96 µM | TGI [2]: 19.5 µM | GI50 [3]: 0.352 µM | TGI [3]: 10.3 µM | GI50 [4]: 1.73 µM | TGI [4]: 10.5 µM | GI50 [5]: 0.492 µM | TGI [5]: 2.4 µM | GI50 [6]: 1.52 µM | TGI [6]: 5.81 µM | GI50 [7]: 12.5 µM | TGI [7]: 25.6 µM | GI50 [8]: 1.15 µM | TGI [8]: 2.85 µM | GI50 [9]: 12.4 µM | TGI [9]: 25.9 µM | GI50 [10]: 0.423 µM | TGI [10]: 8.75 µM | GI50 [11]: 6.88 µM | TGI [11]: 20.7 µM | GI50 [12]: 0.268 µM | TGI [12]: 18.8 µM | GI50 [13]: 1.35 µM | TGI [13]: 9.83 µM | GI50 [14]: 0.349 µM | TGI [14]: 3.78 µM | GI50 [15]: 0.726 µM | TGI [15]: 12.1 µM | GI50 [16]: 5.07 µM | TGI [16]: 20.8 µM | GI50 [17]: 0.72 µM | TGI [17]: 3.16 µM | GI50 [18]: 3.77 µM | TGI [18]: 15.8 µM | GI50 [19]: 13.2 µM | TGI [19]: 26.2 µM | GI50 [20]: 0.459 µM | TGI [20]: 3.33 µM | GI50 [21]: 9.48 µM | TGI [21]: 22.9 µM | GI50 [22]: 0.708 µM | TGI [22]: 22.9 µM | GI50 [23]: 4.91 µM | TGI [23]: 18.4 µM | GI50 [24]: 0.746 µM | TGI [24]: 12.3 µM | GI50 [25]: 1.17 µM | TGI [25]: 10.4 µM | GI50 [26]: 1.85 µM | TGI [26]: 16.3 µM | GI50 [27]: 4.52 µM | TGI [27]: 16.9 µM | GI50 [28]: 8.24 µM | TGI [28]: 27.6 µM | GI50 [29]: 13.6 µM | TGI [29]: > 100 µM | GI50 [30]: 16.4 µM | TGI [30]: > 100 µM | GI50 [31]: 1.47 µM | TGI [31]: 15.3 µM | GI50 [32]: 0.311 µM | TGI [32]: 19.1 µM | GI50 [33]: 3.33 µM | TGI [33]: 20 µM | GI50 [34]: 2.74 µM | TGI [34]: 14.6 µM | GI50 [35]: 0.92 µM | TGI [35]: 20.9 µM | GI50 [36]: 3.28 µM | TGI [36]: 16 µM | GI50 [37]: 12.1 µM | TGI [37]: 28 µM | GI50 [38]: 4.88 µM | TGI [38]: 20.7 µM | GI50 [39]: 1.08 µM | TGI [39]: 2.78 µM | GI50 [40]: 17.1 µM | TGI [40]: 37.9 µM | GI50 [41]: 2.77 µM | TGI [41]: 22.2 µM | GI50 [42]: 3 µM | TGI [42]: 16 µM | GI50 [43]: 2.54 µM | TGI [43]: 14.9 µM | GI50 [44]: 6.52 µM | TGI [44]: 20.3 µM | GI50 [45]: 7.2 µM | TGI [45]: 21.6 µM | GI50 [46]: 2.25 µM | TGI [46]: 10.8 µM | GI50 [47]: 0.475 µM | TGI [47]: 1.9 µM | GI50 [48]: 1.37 µM | TGI [48]: 18.2 µM | GI50 [49]: 0.393 µM | TGI [49]: 21.5 µM | GI50 [50]: 12.1 µM | TGI [50]: 43.1 µM | GI50 [51]: 0.495 µM | TGI [51]: 10.8 µM | GI50 [52]: 1.46 µM | TGI [52]: 10.9 µM | GI50 [53]: 0.174 µM | TGI [53]: 4.05 µM | GI50 [54]: 2.1 µM | TGI [54]: 13.2 µM | GI50 [55]: 0.395 µM | TGI [55]: 2.34 µM | GI50 [56]: 0.418 µM | TGI [56]: 12.3 µM | GI50 [57]: 0.733 µM | TGI [57]: 13.5 µM | GI50 [58]: 15.5 µM | TGI [58]: 30.1 µM | GI50 [59]: 6.9 µM | TGI [59]: 20.4 µM
